In patent US20100331311A1 (priority 2005, published 2010):

How the values were obtained:
[1] = test system: retinal ganglion cells (RGCs); assay type: in vivo, Sprague-Dawley rats
[2] = test system: glaucomatous and normal (contralateral) eyes; parameters: species or system Brown Norway rats; conditions: rat, in vivo, 3.5 mg/kg
Protocol: IOP from glaucomatous and normal (contralateral) eyes was measured in awake animals using a calibrated tonometer (TonoPen XL, Medtronic Solan, Jacksonville, Fla.). Ten to fifteen consecutive readings per eye were taken and averaged to obtain an accurate daily IOP measurement. IOP was measured daily for two weeks after ocular hypertension surgery, and then every other day for the entire duration of the experiment. The mean IOP (mm Hg±S.E.M.) per eye was the average of all IOP readings since the onset of pressure elevation. The maximum IOP measured in each individual eye, glaucomatous or normal contralateral eye, was defined as the peak IOP and this value was used to estimate the mean peak IOP for each group. The delta positive integral IOP was calculated as the area under the IOP curve in the glaucomatous eye minus that of the fellow normal eye from ocular hypertension surgery to euthanasia. Integral IOP represents the total, cumulative IOP exposure throughout the entire experiment.
For this purpose, Applicant measured intraocular pressure every other day for entire duration of daily treatment with galantamine up to 35 days after ocular hypertension (OHT) surgery.

[3] = human, in vivo; cited from earlier work
[4] = mouse, in vivo; cited from earlier work
[5] = test system: retinal ganglion cells (RGCs); parameters: species or system Brown Norway rats; conditions: rat, in vivo, ip, 3.5 mg/kg
Protocol: Two weeks after ocular hypertension surgery, animals were subjected to daily treatment with galantamine ˜3.5 mg/kg body weight, intraperitoneal administration (i.p.). Analysis of RGC survival was carried out at 5 weeks after ocular hypertension surgery.
Therefore, two weeks after ocular hypertension surgery, animals received daily intraperitoneal (i.p) injections of galantamine at a dose of 3.5 mg/kg b.w. as shown in FIG. 2.
All surgeries were performed in adult male Brown Norway rats, retired breeders, between 10-12 months of age (300-400 g), under general anesthesia by intraperitoneal injection of 1 ml/kg b.w. standard rat cocktail consisting of ketamine (100 mg/ml), xylazine (20 mg/ml) and acepromazine (10 mg/ml).
Seven days after DiI application, the time required for labeling the entire RGC population, animals were subjected to ocular hypertension surgery as described below. […]
Analysis of RGC survival was carried out at 5 weeks after ocular hypertension surgery. Quantification of RGC bodies or axons was always performed in duplicate and in a masked fashion. […] Under fluorescence microscopy, DiI-labeled or FluoroGold-labeled neurons were counted in 12 standard retinal areas as previously described (Cheng et al. 2002; Sapieha et al. 2003).

[6] = molecular target: alpha-7 nicotinic acetylcholine receptor (Rattus norvegicus, UniProt Q05941); parameters: species or system Sprague-Dawley rats; conditions: in vivo
Chain of alpha-7 nicotinic acetylcholine receptor (Q05941 23-502 limits assumed): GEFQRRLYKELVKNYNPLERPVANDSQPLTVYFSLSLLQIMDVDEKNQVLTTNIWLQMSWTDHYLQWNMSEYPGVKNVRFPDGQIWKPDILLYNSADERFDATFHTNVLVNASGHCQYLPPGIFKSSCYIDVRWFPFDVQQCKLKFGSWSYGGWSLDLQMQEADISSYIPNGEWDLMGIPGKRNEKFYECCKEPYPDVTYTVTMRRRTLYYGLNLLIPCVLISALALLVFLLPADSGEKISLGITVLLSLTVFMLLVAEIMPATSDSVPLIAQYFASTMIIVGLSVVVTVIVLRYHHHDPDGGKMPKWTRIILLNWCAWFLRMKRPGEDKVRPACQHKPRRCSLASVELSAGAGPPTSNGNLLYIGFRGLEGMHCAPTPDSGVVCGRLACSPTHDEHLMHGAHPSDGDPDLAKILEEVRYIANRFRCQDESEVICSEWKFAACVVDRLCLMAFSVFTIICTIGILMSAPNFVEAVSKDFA

In the case of `COc1cc2c(cc1OC)C(=O)C(CC1CCN(Cc3ccccc3)CC1)C2` (stereo not shown) [Donepezil, donepezil], the “neuroprotection of RGCs after axotomy, galantamine vs donepezil (in words)” value ([1]; 3.5 mg/kg b.w., single intraocular injection, 1 week after optic nerve axotomy) was “neuroprotective after axotomy”.

In the case of `COc1ccc2c3c1O[C@H]1C[C@@H](O)C=C[C@@]31CCN(C)C2` [Galantamine, galantamine], the “Integral IOP” value [2] was 321 ± 10 mm Hg, the “Mean IOP Control” value [2] was 23.7 ± 0.2 mm Hg and the “Mean IOP Glaucoma” value [2] was 40.7 ± 0.8 mm Hg. For the same compound, the “estimated brain concentration of functionally available galantamine” value [3] was 500 to 1200 nM, the brain levels [4] was 200 to 1000 nM and the RGCs preserved [5] was 90%. The RGCs remaining alive ([1]; rat, in vivo) was ~30% and the “survival of axotomized RGCs” value ([1]; rat, in vivo) was > 75%.

With Alpha-bungarotoxin the “block of the total neuroprotective effect of galantamine” value [6] was 10-15%.
